Results as given in patent US7943606B2, “Compositions and methods to control abnormal cell growth” (CanCure Laboratories, LLC, priority 2005, dated 2011).

Assays:
choline transport = test: [14C]choline uptake and metabolism in AN3CA, MCF-7 and MEL-28 cancer cells; assay type: cell-based, human
Procedure: MEL-28 and MCF-7 cells were cultured in MEM medium supplemented with 10% fetal bovine serum (FBS) and in DMEM medium supplemented with 10% FBS, respectively. The AN3CA human endometrial adenocarcinoma cells were maintained in Eagle's MEM containing 10% FBS. Cancer cells were grown up to confluency in 12-well plates in 10% fetal-bovine serum-containing medium, then incubated in the presence of 1 μCi of [methyl-^14C]choline (bought from Amersham; Piscataway, N.J.) for 2 hours. Cells were first rapidly (within 30 seconds) washed three times with 4 ml of serum-free medium, then extracted with ice-cold methanol. This was followed by the determination of cellular free radiolabeled choline and phosphocholine (PCho) by column chromatography as described earlier [Kiss, Z. and Crilly, K. S. (1995), “Tamoxifen inhibits uptake and metabolism of ethanolamine and choline in multidrug-resistant, but not in drug-sensitive, MCF-7 human breast carcinoma cells,” FEBS Lett. 360, 165-168], and the separation and determination of radiolabeled phosphatidylcholine (PtdCho) by thin layer chromatography as indicated in Kiss [Kiss, Z. (1996), “Direct proof that phorbol ester accelerates the use of choline phosphate for phosphatidylcholine synthesis in intact cells,” Arch. Biochem. Biophys. 335, 191-196].
MCF-7 and MEL-28 cells were cultured as described earlier. The AN3CA human endometrial adenocarcinoma cells were maintained in Eagle's MEM containing 10% FBS. Each cell type was grown in 12-well plates to confluency and then incubated with 1 μCi of [methyl-^14C]choline for 2 hours in the absence (□) or presence of 100 μM CCDTHT ? or 0.5 mM HC-3 (▪), followed by the determination of cellular contents of radiolabeled choline (A), PCho (B) and PtdCho (C), as indicated in FIG. 9. […] Thus, if both CCDTHT and HC-3 influenced cell viability solely via inhibition of choline metabolism, then these agents should similarly affect cell viability, at least at the concentrations used in the choline transport experiment.

NIH 3T3 cells = test: Viability of NIH 3T3 normal fibroblasts (MTT assay); assay type: cell-based; details: 0-200 μM, 72 hours, MTT
Procedure: (§1) To quantify cell death, around the time when significant and characteristic morphological changes took place, cells were pulse-labeled for 10 minutes with [^3H]thymidine to measure DNA activity as described elsewhere [Tomono, M. and Kiss, Z. (1995), “Ethanol enhances the stimulatory effects of insulin and insulin-like growth factor-I on DNA synthesis in NIH 3T3 fibroblasts,” Biochem. Biophys. Res. Commun. 208, 63-67]. Also, cells were collected as suspensions using trypsin, an established method in cell biology, followed by re-plating of cells in fresh tissue culture medium. If no viable cells were obtained after one week in culture, it meant that the cells at the time of re-plating were dead. Survival values obtained with untreated cells were considered 100%. For the determination of relative number of viable cells after treatments, in most cases the MTT assay was used. This calorimetric assay is based on the ability of living cells, but not dead cells, to reduce 3-(4,5-dimethyl thiazol-2-yl)-2,5-diphenyltetrazolium bromide [Carmichael, J, De Graff, W. G., Gazdar, A. F., Minna, J. D. and Mitchell, J. B. (1987), “Evaluation of tetrazolium-based semi-automated calorimetric assay: Assessment of chemosensitivity testing,” Cancer Res. 47, 936-942]. For this assay, cells were plated in 96-well plates, and the MTT assay was performed both in untreated and treated cell cultures. The MTT assay also was performed at the start of treatments to allow assessment of proliferation rates in the control and treated cell cultures.
(§2) The NIH 3T3 (normal) mouse fibroblast, A431 human epidermoid adenocarcinoma, and MCF-7 human breast cancer cells were cultured in DMEM medium containing 10% FBS. The MEL-28 human melanoma cells were cultured in MEM medium containing 10% FBS. The HT-29 human colon adenocarcinoma cells were cultured in McCoy's 5a medium containing 10% FBS. The A549 human lung carcinoma cells were maintained in Ham's F12K medium containing 10% FBS. Cells were seeded into 96-well plates and treated at ˜70-90% confluency. Two hours before treatments the medium was changed for fresh 10% serum medium, and then the cells were incubated for 72 hours in the presence of 0-200 μM of CCompound1 (●) or CCompound3 (CCDTHT) (▴), as indicated. The MTT assay was used to determine cell viability after treatments. The values, shown in FIGS. 5A-5F and expressed as percent decrease in viability compared to the untreated control cells, are the mean±std. dev. of 8 incubations in one experiment. Similar results were obtained in another experiment.
(§3) NIH3T3, T47D, A-431, HT-29, and MEL-28 cells were cultured as indicated earlier. CaOV-3 human ovarian cancer cells were cultured in DMEM containing 10% FBS. ZR-75-1 human estrogen receptor-positive breast cancer cells were maintained in RPMI 1640 medium supplemented with 10% FBS. HTB-157 human fetal fibroblasts, MEL-24 human malignant melanoma cells, Hep G2 human hepatoblastoma cells, and CaCO-2 human colon adenocarcinoma cells were maintained in Eagles's MEM containing 10% FBS. MB-231 human estrogen receptor-negative breast cancer cells were maintained in Leibovitz's L-15 medium supplemented with 10% FBS. Cells were seeded into 96-well plates and treated at ˜70-90% confluency. Two hours prior to treatments the medium was changed for fresh 10% serum medium, and then the cells were incubated for 10 days in the absence (□) or presence of 50 μM CCDTHT ? or 100 μM CCDTHT (▪). The medium was changed and the cells were re-treated on days 3 and 6. The MTT assay was used to determine cell viability on day 10. The data, shown in FIG. 6, are the mean±std. dev. of 8 incubations in one experiment. (The experiment was repeated twice with similar results).
(§4) NIH 3T3, MEL-28, MEL-24, CaOV-3, ZR-75-1, and T47D cells were cultured as described above. The OVCAR human ovarian cancer cells were cultured in DMEM containing 10% FBS. Cells were seeded into 96-well plates and used at ˜60-80% confluency. […]

A-431 cells = test: Viability of A-431 epidermoid adenocarcinoma cells (MTT assay); assay type: cell-based, human; details: 0-200 μM, 72 hours, MTT
Procedure: as §1, §2, §3, §4

MCF-7 cells = test: Viability of MCF-7 breast cancer cells; assay type: cell-based, human; details: 0-200 μM, 72 hours, MTT
Procedure: as §1
About 50% confluent cultures of MCF-7 cells, cultured in 12-well plates in Dulbecco's modified Eagle's medium (DMEM) supplemented with 10% FBS, were either untreated (FIG. 3A), or were treated with 100 μM CCDTHT (CCompound3) for 72 hours (FIG. 3B). […] This experiment was repeated three times with similar results. In some experiments, cells from the CCDTHT-treated cultures were seeded into 96-well plates, and the MTT assay was performed 96 hours later to test for viable cells.
as §2
NIH 3T3, AN3CA, HT-29, MEL-28, and MCF-7 cells were cultured as described earlier. Cells were seeded into 96-well plates; when cells were ˜80-90% confluent, the medium was changed for fresh 10% serum-containing medium, followed by incubations for 72 hours in the absence (□) or presence of 100 μM CCDTHT ? , 2 mM ethanolamine (Etn) ? , or 100 μM CCDTHT+2 mM Etn (▪). The MTT assay was used to determine cell viability. […]

[1] = Toxicological studies in mice; assay type: in vivo, mouse; details: 200-500 μmole/animal
Procedure: Accordingly, a well-tolerated dose for CCDTHT in mice is 450 μmole/animal (weighing about 25 g) which corresponds to a dose of 4.6 mg/kg. Therapeutically effective concentrations in humans will exert maximal inhibitory effects on the growth of non-healthy tissues without causing significant toxicity in normal healthy tissues.
Parallel toxicological studies also have been performed with 200-500 μmole/animal doses of the commercially available CCompound1. […] CCompound26, which may have an even better toxicity profile based on in vitro experiments with normal cells, was synthesized much later and has not yet been tested in animal experiments.

[2] = cited from earlier work

C[N+]1(C)CCOC(O)(c2ccc(-c3ccc(C4(O)C[N+](C)(C)CCO4)cc3)cc2)C1.[Br-].[Br-] (stereo not shown) [HC-3]
inhibitory effects on choline uptake and metabolism (choline, PCho, PtdCho) (choline transport; 100 μM CCDTHT or 0.5 mM HC-3, 2 hours, each cell line): comparably strong inhibitory effects | inhibition of choline transport (choline transport; 0.1 mM): 20-25%

Cc1c(OCC(O)C[N+](C)(C)C)cc2c(=O)c3ccccc3sc2c1C.[Cl-] (stereo not shown) [CCcompound1, [3-(3,4-Dimethyl-9-oxo-9H-thioxanthen-2-yloxy)-2-hydroxypropyl]trimethyl-ammonium chloride, reference compound]
toxic effects in NIH 3T3 (normal) fibroblast cultures (NIH 3T3 cells): none of these compounds exerted major toxic effects | decrease in viability, A-431 (A-431 cells): similarly large effects | decrease in viability, MCF-7 (MCF-7 cells): similarly large effects | tolerability [1]: similarly well tolerated

B1: PALP: human placental alkaline phosphatase, highly purified from commercial (Sigma-Aldrich) PALP (protein, UniProt P05187 23-506, looked up)
Alkaline phosphatase, …: IIPVEEENPDFWNREAAEALGAAKKLQPAQTAAKNLIIFLGDGMGVSTVTAARILKGQKKDKLGPEIPLAMDRFPYVALSKTYNVDKHVPDSGATATAYLCGVKGNFQTIGLSAAARFNQCNTTRGNEVISVMNRAKKAGKSVGVVTTTRVQHASPAGTYAHTVNRNWYSDADVPASARQEGCQDIATQLISNMDIDVILGGGRKYMFRMGTPDPEYPDDYSQGGTRLDGKNLVQEWLAKRQGARYVWNRTELMQASLDPSVTHLMGLFEPGDMKYEIHRDSTLDPSLMEMTEAALRLLSRNPRGFFLFVEGGRIDHGHHESRAYRALTETIMFDDAIERAGQLTSEEDTLSLVTADHSHVFSFGGYPLRGSSIFGLAPGKARDRKAYTVLLYGNGPGYVLKDGARPDVTESESGSPEYRQQSAVPLDEETHAGEDVAVFARGPQAHLVHGVQEQTFIAHVMAFAACLEPYTACDLAPPAGTTD
half-life time [2]: 120 to 140 h
